Source: patent US20110263454A1, “Methods of Identifying Functional Characteristics of Promoters, Transcription Modifying Proteins and Transcription Modulating Agents” (Salk Institute for Biological Studies, priority 2008, published 2011)

Legend:
mCAR promoter = experiment: NHR-promoter luciferase screen, mCAR promoter; assay type: cell-based, mouse; conditions: for luciferase activity normalized to lacZ activity and to a control, mCAR: mCAR promoter-luciferase, CV-1 cells, NHR +/- ligand, control = 1.00; for Luc. act., normalized to lacZ / Normalized Luc. act., normalized to control: mCAR promoter, HR/ligand component
Description: (§1) The use, feasibility, and reproducibility of the functional NHR-promoter screen in a 48-well format have been tested validated. Briefly, there were co-expressed 50 ng of each NHR/NHR homodimer or NHR/RXR heterodimer with 100 ng promoter/luciferase construct and 50 ng of LacZ (as a control for transfection efficiency) in CV-1 cells using Fugene HD (Roche) as a transfection reagent (alternatively or additionally, a CMV-YFP construct can be used as a transfection control). Each of the nuclear hormone receptors that were used in these experiments was cloned into a pcDNA3.1 vector and comprised a C-terminally linked V5H6 tag. Twenty-four hours after transfection, appropriate ligands were added, where applicable, (see Table 5 for various ligands and concentrations and after 48 hrs, samples were assayed for luciferase and LacZ activity. To measure for luciferase activity 15 ul of sample was added to 30 ul of luciferase buffer (20 mM tricine, 1.07 mM MgCarbonate, 2.67 mM MgSulfate, 0.1 mM Naz-EDTA, 5 mM DTT, 5 mM ATP, 0.15 mg/ml CoA, 0.5 mM Luciferin), mixed briefly, and run in a Perkin Elmer Victor 5 luminometer. Thus, the functional NHR-promoter screen was used to observe the transcriptional activity of 29 promoters from various physiological pathways including inflammation, lipid and sugar metabolism, cholesterol transport, xenobiotic metabolism, and circadian rhythm.
(§2) The promoters that facilitate transcription of the indicated gene products that were tested using the protocols described herein are listed in the first row of the table. The nuclear hormone receptors and, where applicable, ligands that were assayed for their transcriptional effects on the promoters are listed in the first column of the table. The data represent the luciferase activity of each sample normalized to both the lacZ activity of that sample and to a control, e.g., no NHR or ligand, as customary in the art. As described previously, these normalizations allow the transcriptional activity of each reporter cell to be compared to other samples.
(§3) Tables 7-40 show the transcriptional effects of the hormone receptors, and, where applicable, ligands (orphan receptors are screened without ligand), on each individual promoter. […] The control data of each table are shown in their last rows.

mPOMC promoter = experiment: NHR-promoter luciferase screen, mPOMC promoter; assay type: cell-based, mouse; conditions: for Results of assays of transcription factor (+/- ligand) with mPOMC: Table 6d, luciferase activity relative to control (control = 1.00); for Luc. act., normalized to lacZ / Normalized Luc. act., normalized to control: mPOMC promoter, HR component with or without ligand; for Normalized Luc. act., normalized to control: relative to control
Description: as §1, §2, §3

mABCA1 promoter = experiment: NHR-promoter luciferase screen, mABCA1 promoter; assay type: cell-based, mouse; conditions: for Luc. act., normalized to lacZ / Normalized Luc. act., normalized to control: ABCA1 promoter, hormone receptor with or without its ligand; for Normalized Luc. act., normalized to control: relative to control; for mABCA1 promoter reporter activity: transcription factor +/- ligand, control = 1.00
Description: as §1, §2, §3

hPOMC promoter = experiment: NHR-promoter luciferase screen, hPOMC promoter; assay type: cell-based, human; conditions: for luciferase/LacZ, hPOMC (selected results): hPOMC promoter-luciferase, NHR +/- ligand, control = 1.0; for Luc. act., normalized to lacZ / Normalized Luc. act., normalized to control: hPOMC promoter, HR/ligand component; for hPOMC promoter reporter activity: transcription factor +/- ligand, control = 1.00
Description: as §1, §2, §3

mDio1 promoter = experiment: NHR-promoter luciferase screen, mDio1 promoter; assay type: cell-based, mouse; conditions: for Luc. act., normalized to lacZ / Normalized Luc. act., normalized to control: Dio1, HR component without or with its ligand; for mDio1 promoter reporter activity: transcription factor +/- ligand, control = 1.00
Description: as §1, §2, §3

hCAR promoter = experiment: NHR-promoter luciferase screen, hCAR promoter; assay type: cell-based, human; conditions: for luciferase activity normalized to lacZ activity and to a control, hCAR: hCAR promoter-luciferase, CV-1 cells, NHR +/- ligand, control = 1.00; for Luc. act., normalized to lacZ / Normalized Luc. act., normalized to control: hCAR promoter, HR/ligand component
Description: as §1, §2, §3

Molecule | luciferase activity normalized to lacZ activity and to a control, mCAR (mCAR promoter) | Luc. act., normalized to lacZ (mCAR promoter) | Normalized Luc. act., normalized to control (mCAR promoter) | Results of assays of transcription factor (+/- ligand) with mPOMC (mPOMC promoter) | Luc. act., normalized to lacZ (mPOMC promoter) | Normalized Luc. act., normalized to control (mPOMC promoter) | Luc. act., normalized to lacZ (mABCA1 promoter) | Normalized Luc. act., normalized to control (mABCA1 promoter) | mABCA1 promoter reporter activity (mABCA1 promoter) | luciferase/LacZ, hPOMC (selected results) (hPOMC promoter) | Luc. act., normalized to lacZ (hPOMC promoter) | Normalized Luc. act., normalized to control (hPOMC promoter) | hPOMC promoter reporter activity (hPOMC promoter) | Luc. act., normalized to lacZ (mDio1 promoter) | Normalized Luc. act., normalized to control (mDio1 promoter) | mDio1 promoter reporter activity (mDio1 promoter) | luciferase activity normalized to lacZ activity and to a control, hCAR (hCAR promoter) | Luc. act., normalized to lacZ (hCAR promoter) | Normalized Luc. act., normalized to control (hCAR promoter) | regulation of the Constitutive Androstane Receptor (CAR) promoter (mCAR promoter; FIG. 2a, in words)
NR4a1: NR4a1 (NR4A1; NUR77), nuclear hormone receptor cDNA driver | 0.94 | 35.66 | 0.9 | 3.58 | 246.9 | 3.6 | 11.4 | 2.0 | 2.04 | 3.6 | 15.3 | 3.6 | 3.57 | 10.9 | 2.4 | 2.45 | 0.97 | 30.7 | 1.0 | 
GR: Glucocorticoid Receptor (NR3C1), cDNA driver | 0.23 | 8.74 | 0.2 | 0.50 | 34.5 | 0.5 | 8.5 | 1.5 | 1.52 | 0.2 | 0.7 | 0.2 | 0.16 | 2.5 | 0.6 | 0.55 | 0.36 | 11.25 | 0.4 | 
RXRa: Retinoic X Receptor α (NR2B1), cDNA driver | 0.97 | 36.9 | 1.0 | 0.99 | 68.0 | 1.0 | 8.7 | 1.6 | 1.56 |  | 2.6 | 0.6 | 0.61 | 5.5 | 1.2 | 1.24 | 0.78 | 24.7 | 0.8 | 
VDR: Vitamin D Receptor (NR1I1), cDNA driver | 0.69 | 26.5 | 0.7 | 1.16 | 79.8 | 1.2 | 15.2 | 2.7 | 2.71 |  | 3.8 | 0.9 | 0.90 | 7.6 | 1.7 | 1.71 | 0.83 | 26.1 | 0.8 | 
SF-1: Steroidogenic Factor 1 (NR5A1, SF1), cDNA driver | 2.43 | 92.6 | 2.4 | 8.37 | 577.5 | 8.4 | 34.4 | 6.1 | 6.12 |  | 13.1 | 3.1 | 3.06 | 19.8 | 4.5 | 4.45 | 3.60 | 113.6 | 3.6 | 
HNF4a: Hepatocyte Nuclear Factor α (NR2A1), cDNA driver (protein, UniProt P41235 1-474, looked up) Hepatocyte nuclear factor …: MRLSKTLVDMDMADYSAALDPAYTTLEFENVQVLTMGNDTSPSEGTNLNAPNSLGVSALCAICGDRATGKHYGASSCDGCKGFFRRSVRKNHMYSCRFSRQCVVDKDKRNQCRYCRLKKCFRAGMKKEAVQNERDRISTRRSSYEDSSLPSINALLQAEVLSRQITSPVSGINGDIRAKKIASIADVCESMKEQLLVLVEWAKYIPAFCELPLDDQVALLRAHAGEHLLLGATKRSMVFKDVLLLGNDYIVPRHCPELAEMSRVSIRILDELVLPFQELQIDDNEYAYLKAIIFFDPDAKGLSDPGKIKRLRSQVQVSLEDYINDRQYDSRGRFGELLLLLPTLQSITWQMIEQIQFIKLFGMAKIDNLLQEMLLGGSPSDAPHAHHPLHPHLMQEHMGTNVIVANTMPTHLSNGQMCEWPRPRGQAATPETPQPSPPGGSGSEPYKLLPGAVATIVKPLSAIPQPTITKQEVI | 16.83 | 641.2 | 16.8 | 0.90 | 62.0 | 0.9 | 10.7 | 1.9 | 1.90 |  | 3.5 | 0.8 | 0.81 | 10.0 | 2.3 | 2.25 | 15.62 | 493.6 | 15.6 | Specific and strong activation
